Measurements from patent US20210214375A1 (LUNDBECK LA JOLLA RESEARCH CENTER, INC., priority 2017, published 2021).
Where two headings read alike, the source gives them in different places.

Key:
Assay type in all cases: biochemical
MGLL = biological target: T1, MGLL (Mus musculus, UniProt O35678); experiment: In vitro competitive activity-based protein profiling, mouse brain proteome
T1 construct: Brain; from tissue; host or cells: mouse brain proteome
T1 sequence (O35678 1-303): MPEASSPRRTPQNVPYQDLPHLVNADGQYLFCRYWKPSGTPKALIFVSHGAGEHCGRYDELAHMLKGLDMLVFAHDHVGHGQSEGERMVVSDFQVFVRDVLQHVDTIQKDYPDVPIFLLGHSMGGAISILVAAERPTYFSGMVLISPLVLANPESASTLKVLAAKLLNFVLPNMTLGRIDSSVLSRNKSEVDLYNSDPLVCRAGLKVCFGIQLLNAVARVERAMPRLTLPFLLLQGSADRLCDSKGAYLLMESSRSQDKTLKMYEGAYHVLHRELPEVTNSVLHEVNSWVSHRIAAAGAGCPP
Description: [Worded in the source for another species; this species is reported under the same test.] (§1) Proteomes (human prefrontal cortex or cell membrane fractions) (50 μL, 1.0 mg/mL total protein concentration) were preincubated with varying concentrations of inhibitors at 37° C. After 30 min, FP—Rh or HT-01 (1.0 μL, 50 μM in DMSO) was added and the mixture was incubated for another 30 min at room temperature. Reactions were quenched with SDS loading buffer (15 μL-4×) and run on SDS-PAGE.

ABHD6 = biological target: T2, ABHD6 (Mus musculus, UniProt Q8R2Y0); experiment: In vitro competitive activity-based protein profiling, mouse brain proteome, ABHD6; settings: mouse
T2 construct: Brain; from tissue; host or cells: mouse brain proteome
T2 sequence (Q8R2Y0 1-336): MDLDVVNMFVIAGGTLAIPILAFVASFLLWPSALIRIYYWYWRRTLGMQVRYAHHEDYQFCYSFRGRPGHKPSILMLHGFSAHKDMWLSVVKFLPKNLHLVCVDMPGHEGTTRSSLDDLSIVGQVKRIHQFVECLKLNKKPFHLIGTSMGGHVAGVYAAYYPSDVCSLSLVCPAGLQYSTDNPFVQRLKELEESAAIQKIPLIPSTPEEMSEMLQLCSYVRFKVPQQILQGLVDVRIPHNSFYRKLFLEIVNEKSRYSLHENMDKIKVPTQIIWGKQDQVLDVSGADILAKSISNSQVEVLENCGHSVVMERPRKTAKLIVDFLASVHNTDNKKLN
Description: [Worded in the source for another target; this target is reported under the same test.] as §1

MAGL = biological target: T3, MAGL (Homo sapiens, UniProt Q99685); experiment: In vitro competitive activity-based protein profiling (gel-based, FP-Rh or HT-01 probe)
T3 construct: Proteomes (human prefrontal cortex or cell membrane fractions); from tissue
T3 sequence (Q99685 1-303): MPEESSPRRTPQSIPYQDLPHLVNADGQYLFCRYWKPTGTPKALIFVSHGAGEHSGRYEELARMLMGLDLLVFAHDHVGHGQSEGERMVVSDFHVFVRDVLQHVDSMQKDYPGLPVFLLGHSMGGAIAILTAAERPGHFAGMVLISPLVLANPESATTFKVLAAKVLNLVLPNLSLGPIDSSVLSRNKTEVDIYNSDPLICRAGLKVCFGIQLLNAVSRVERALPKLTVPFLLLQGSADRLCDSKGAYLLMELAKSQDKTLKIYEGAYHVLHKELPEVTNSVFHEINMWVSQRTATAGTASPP
Description: Compounds are tested to assess their MAGL and serine hydrolase activity using the following in vitro and in vivo assays.
as §1

[1] = PFC (prefrontal cortex) proteome
[2] = PC3 proteome, read-out: IC50 MGLL PC3 (Human)

`O=C(OC(C(F)(F)F)C(F)(F)F)N1CCC2(CCCN2C(=O)c2ccc(Cl)cc2)CC1` [Example 13, 1,1,1,3,3,3-Hexafluoropropan-2-yl 1-(4-chlorobenzoyl)-1,8-diazaspiro[4.5]decane-8-carboxylate] showed an IC50 (MGLL) of less than 100 nM and an IC50 (ABHD6) of 100 to 1000 nM.
In the case of `CC(=O)N1CCCc2cccc(CN3CC4(CCN(C(=O)OC(C(F)(F)F)C(F)(F)F)CC4)C3)c21` [Example 15, 1,1,1,3,3,3-Hexafluoropropan-2-yl 2-((1-acetyl-1,2,3,4-tetrahydroquinolin-8-yl)methyl)-2,7-diazaspiro[3.5]nonane-7-carboxylate], the IC50 (MGLL) is reported as less than 100 nM and the IC50 (ABHD6) is reported as 100 to 1000 nM.
Work on `CCN1CCCc2cccc(CN3CC4(CCN(C(=O)OC(C(F)(F)F)C(F)(F)F)CC4)C3)c21` [Example 16, 1,1,1,3,3,3-Hexafluoropropan-2-yl 2-((1-ethyl-1,2,3,4-tetrahydroquinolin-8-yl)methyl)-2,7-diazaspiro[3.5]nonane-7-carboxylate] yielded an IC50 (MGLL) of less than 100 nM and an IC50 (ABHD6) of 100 to 1000 nM.
In the case of `CCN1CCCc2cccc(CN3CCC4(CC3)CN(C(=O)OC(C(F)(F)F)C(F)(F)F)C4)c21` [Example 31, 1,1,1,3,3,3-Hexafluoropropan-2-yl 7-((1-ethyl-1,2,3,4-tetrahydroquinolin-8-yl)methyl)-2,7-diazaspiro[3.5]nonane-2-carboxylate], the IC50 (MGLL) is reported as greater than 1000 nM and the IC50 (ABHD6) is reported as 100 to 1000 nM.
Work on `O=C(OC(C(F)(F)F)C(F)(F)F)N1CC2(CCN(Cc3c(N4CC5COCC5C4)cccc3C(F)(F)F)CC2)C1` (stereo not drawn) [Example 33] yielded an IC50 (MGLL) of 100 to 1000 nM and an IC50 (ABHD6) of 100 to 1000 nM.
In the case of `O=C(OC(C(F)(F)F)C(F)(F)F)N1CCC2(CC1)CN(Cc1ccc(Cl)cc1N1CCCC1)C2` [Example 34], the IC50 (MGLL) is reported as less than 100 nM and the IC50 (ABHD6) is reported as 100 to 1000 nM.
`O=C(OC(C(F)(F)F)C(F)(F)F)N1CCC2(CC1)CN(Cc1ccc(C(F)(F)F)cc1N1CCCCC1)C2` [Example 35] was tested, and the IC50 (MGLL) was less than 100 nM and the IC50 (ABHD6) was 100 to 1000 nM.
`O=C(OC(C(F)(F)F)C(F)(F)F)N1CCC2(CC1)CN(Cc1ccc(C(F)(F)F)cc1N1CCOCC1)C2` [Example 36, 1,1,1,3,3,3-Hexafluoropropan-2-yl 2-(2-morpholino-4-(trifluoromethyl)benzyl)-2,7-diazaspiro[3.5]nonane-7-carboxylate] was tested, and the IC50 (MGLL) was less than 100 nM and the IC50 (ABHD6) was 100 to 1000 nM.
`O=C(OC(C(F)(F)F)C(F)(F)F)N1CCC2(CC1)CN(Cc1ccc(Cl)cc1N1CCCCC1)C2` [Example 38, 1,1,1,3,3,3-Hexafluoropropan-2-yl 2-(4-chloro-2-(piperidin-1-yl)benzyl)-2,7-diazaspiro[3.5]nonane-7-carboxylate] gave an IC50 (MGLL) of 100 to 1000 nM and an IC50 (ABHD6) of 100 to 1000 nM.
In the case of `CN(Cc1ccc(Cl)cc1N1CCC(C(=O)O)CC1)C1(C)CCN(C(=O)OC(C(F)(F)F)C(F)(F)F)CC1` [Example 135, 1-(5-Chloro-2-(((1-(((1,1,1,3,3,3-hexafluoropropan-2-yl)oxy)carbonyl)-4-methylpiperidin-4-yl)(methyl)amino)methyl)phenyl) piperidine-4-carboxylic acid], the “% Inh MGLL PFC (Human, μM)” value (MAGL; [1]) is reported as “### (### is ≥ 75%)”.
`CN(Cc1ccc(C(F)(F)F)cc1OCC(=O)O)C1(C)CCN(C(=O)OC(C(F)(F)F)C(F)(F)F)CC1` [Example 136, 2-(2-(((1-(((1,1,1,3,3,3-Hexafluoropropan-2-yl)oxy)carbonyl)-4-methylpiperidin-4-yl)(methyl)amino)methyl)-5-(trifluoromethyl)phenoxy)acetic acid] was tested, and the IC50 (MAGL; [2]) was less than 100 nM and the “% Inh MGLL PFC (Human, μM)” value (MAGL; [1]) was “### (### is ≥ 75%)”.
`CN(Cc1cc(C(F)(F)F)cc(C2(C(=O)O)CCCC2)c1)C1(C)CCN(C(=O)OC(C(F)(F)F)C(F)(F)F)CC1` [Example 138, 1-(3-{[(1-{[(1,1,1,3,3,3-Hexafluoropropan-2-yl)oxy]carbonyl}-4-methylpiperidin-4-yl)(methyl)amino]methyl}-5-(trifluoromethyl)phenyl)cyclopentane-1-carboxylic acid] was tested, and the “% Inh MGLL PFC (Human, μM)” value (MAGL; [1]) was “### (### is ≥ 75%)” and the IC50 (MAGL; PFC (prefrontal cortex) proteome, read-out: IC50 MGLL PFC (Human)) was less than 100 nM.
For `CC(C)(C#Cc1cc(CN2CCCC23CCN(C(=O)OC(C(F)(F)F)C(F)(F)F)CC3)cc(C(F)(F)F)c1)C(=O)O` [Example 140, 4-{3-[(8-{[(1,1,1,3,3,3-Hexafluoropropan-2-yl)oxy]carbonyl}-1,8-dazaspiro[4.5]decan-1-yl)methyl]-5-(trifluoromethyl)phenyl]-2,2-dimethylbut-3-ynoic acid], the IC50 (MAGL; [2]) was less than 100 nM.
In the case of `CN(Cc1cccc(F)c1C1(C(=O)O)CCCC1)C1(C)CCN(C(=O)OC(C(F)(F)F)C(F)(F)F)CC1` [Example 144, 1-(2-Fluoro-6-{[(1-{[(1,1,1,3,3,3-hexafluoropropan-2-yl)oxy]carbonyl}-4-methylpiperidin-4-yl)(methyl)amino]methyl}phenyl) cyclopentane-1-carboxylic acid], the IC50 (MAGL; [2]) is reported as less than 100 nM and the “% Inh MGLL PFC (Human, μM)” value (MAGL; [1]) is reported as “### (### is ≥ 75%)”.
With `CC(C)(C#Cc1ccccc1CN1CCCC12CCN(C(=O)OC(C(F)(F)F)C(F)(F)F)CC2)C(=O)O` [Example 145, 4-{2-[(8-{[(1,1,1,3,3,3-Hexafluoropropan-2-yl)oxy]carbonyl}-1,8-diazaspiro[4.5]decan-1-yl)methyl]phenyl]-2,2-dimethylbut-3-ynoic acid] the IC50 (MAGL; [2]) was 100 to 1000 nM and the “% Inh MGLL PFC (Human, μM)” value (MAGL; [1]) was “### (### is ≥ 75%)”.
With `CC1(OCc2ccc(Cl)cc2C2(C(=O)O)CCCC2)CCN(C(=O)OC(C(F)(F)F)C(F)(F)F)CC1` [Example 146, 1-(5-Chloro-2-{[(1-{[(1,1,1,3,3,3-hexafluoropropan-2-yl)oxy]carbonyl}-4-methylpiperidin-4-yl)oxy]methyl}phenyl) cyclopentane-1-carboxylic acid] the IC50 (MAGL; [2]) was less than 100 nM and the “% Inh MGLL PFC (Human, μM)” value (MAGL; [1]) was “### (### is ≥ 75%)”.
For `CN(Cc1ccc(C(F)(F)F)cc1N1CCC(N2CCC[C@H]2C(=O)O)CC1)C1(C)CCN(C(=O)OC(C(F)(F)F)C(F)(F)F)CC1` [Example 163, (1-(2-(((1-(((1,1,1,3,3,3-Hexafluoropropan-2-yl)oxy)carbonyl)-4-methylpiperidin-4-yl)(methyl)amino)methyl)-5-(trifluoromethyl)phenyl)piperidin-4-yl)-L-proline], the “% Inh MGLL PC3 (Human, μM)” value (MAGL; PC3 proteome) was “### (### is ≥ 75%)” and the “% Inh MGLL Brain (Mouse, μM)” value (MGLL) was “### (### is ≥ 75%)”.
`O=C(O)C1CCN(c2cc(CN3CCC4(CC3)CCN(C(=O)OC(C(F)(F)F)C(F)(F)F)C4)ccc2C(F)(F)F)CC1` [Example 221] gave an IC50 (MAGL; [2]) of less than 100 nM.
`O=C(O)C1CCN(c2cc(S(F)(F)(F)(F)F)ccc2CN2CCC3(CC2)CCN(C(=O)OC(C(F)(F)F)C(F)(F)F)C3)CC1` [Example 222, 1-(2-((2-(((1,1,1,3,3,3-Hexafluoropropan-2-yl)oxy)carbonyl)-2,8-diazaspiro[4.5]decan-8-yl)methyl)-5-(pentafluoro-l6-sulfaneyl)phenyl) piperidine-4-carboxylic acid] showed an IC50 (MAGL; [2]) of 100 to 1000 nM.
Molecule `O=C(O)C1CCN(c2cc(CN3CCC4(CC3)CCN(C(=O)OC(C(F)(F)F)C(F)(F)F)C4)cc(S(F)(F)(F)(F)F)c2)CC1` [Example 226, 1-(3-((2-(((1,1,1,3,3,3-Hexafluoropropan-2-yl)oxy)carbonyl)-2,8-diazaspiro[4.5]decan-8-yl)methyl)-5-(pentafluoro-l6-sulfaneyl)phenyl) piperidine-4-carboxylic acid] has an IC50 (MAGL; [2]) of less than 100 nM.
For `CC1(OCc2cc(N3CCC(C(=O)O)CC3)cc(C(F)(F)F)c2)CCN(C(=O)OC(C(F)(F)F)C(F)(F)F)CC1` [Example 227], the IC50 (MAGL; [2]) was less than 100 nM.
